Article PMC5225183, “Fingerprinting of neurotoxic compounds using a mouse embryonic stem cell dual luminescence reporter assay” (Archives of Toxicology, 2016)
Like-named read-outs stand apart in the source and are kept apart here. Marks after values point to notes of the source that are not given here.

Columns and labels:
CGR8-2Luc ESCs = tested on: CGR8-2Luc ESCs
Excerpt: (§1) Fig. 1 Synopsis of experimental protocols. The impact of compounds on neural promoter activity (FLuc, Firefly Luciferase under the control of the Tα1 promoter), general promoter activity (RLuc, Renilla Luciferase under the control of the EF1α promoter), and amount of DNA (PI, propidium iodide fluorescence in cell homogenates) was investigated in undifferentiated mouse embryonic pluripotent stem cells (ESCs) and on ESC-derived neurons. Arrows indicate the time of measurement of the three parameters. a Protocol for testing compounds effects on ESCs. CGR8-2Luc cells were plated on gelatin-coated 96-well plates in maintenance medium (BHK21 medium containing 10 % FCS, L-glutamine, NEAA, P/S, and LIF). Twenty-four hours later, cells were exposed to compounds for forty-eight hours. b Protocol for testing compounds on ESC-derived neurons. CGR8-2Luc cells were co-cultured with MS5 cells to induce neural differentiation in DMEM medium containing 15 % KO-serum, NEAA, β-mercaptoethanol, and P/S. On day 5, cells were detached and seeded on polyornithine-coated plates in DMEM medium containing N2 supplement, bFGF, and P/S; compound exposure was from day 6 to day 8
(§2) To test compounds on ESC-derived neurons, neuronal differentiation was carried out as previously described (Suter et al. [2009]; Xu et al. [2014]). Briefly, CGR8-2Luc cells were seeded on irradiated bone marrow-derived stromal MS5 cells and cultivated for 4 days in DMEM medium containing 15 % Knock-out™ Serum Replacement, non-essential amino acids, beta-mercaptoethanol, and penicillin/streptomycin. At day 5, cells were then re-plated (3 × 10^5 cells/cm^2) on polyornithine-coated 96-well plates in N2 medium containing DMEM, N2 supplement, penicillin/streptomycin, and 10 ng/ml basic human fibroblast growth factor (bFGF) (Invitrogen). […] To assess toxicity of compounds on undifferentiated pluripotent stem cells (ESCs), CGR8-2Luc cells were plated at 45,000 cells/cm^2 on 0.1 % gelatin-coated dishes in BHK21 medium, supplemented with 10 % fetal calf serum, L-glutamine, non-essential amino acids, penicillin/streptomycin, and leukemia inhibitory factor (LIF). After 24 h, compounds were added and incubated for 48 h, before luciferase expression and PI fluorescence were analyzed. In all experiments, methylmercury was used as a positive control at a concentration of 5 µM.
(§3) After measurement of luciferase activity, DNA quantity was determined by PI assay, as previously described (Xu et al. [2014]). PI was added to cell homogenates after the luciferase test, at a final concentration of 50 µg/ml and incubated for 2 h. After incubation, fluorescence intensity was measured on a Flexstation 3 microplate reader (Excitation: 544 nm ± 15 nm; Emission: 620 nm ± 15 nm). Results are expressed as percentage of control. Propidium iodide (PI) measures total DNA content as an approximation of the cell number. A decrease in PI fluorescence was interpreted as a decrease in cell number and therefore throughout the text referred to as cytotoxicity.
(§4) Lowest adverse effect level (LOAEL) was defined as the lowest tested concentrations that lead to a statistically significant decrease for a given read-out (FLuc, RLuc, and PI) compared to baseline. “Baseline” was not in all cases defined by untreated cells, but may also refer to, e.g., a state of increased activity due to low, non-toxic compound concentrations.

ESC-derived neurons = tested on: ESC-derived neurons
Excerpt: as §1, §2, §3, §4

[1] = tested on: Tubulin α1 (Tα1) promoter; experiment: cells
Excerpt: (§5) Dual luciferase expressing CGR8-2Luc cells were obtained by transduction of mouse ESC CGR8 cells with the 2K7 EFS-Renilla Luciferase (RLuc)/Talpha1-Firefly Luciferase (FLuc) vector as previously described (Suter et al. [2006], [2009]); EFS corresponds to the short promoter of the eukaryotic translation elongation factor 1 alpha (EF1α), and Talpha1 to the Tubulin α1 (Tα1) promoter. Tα1 was selected as a promoter active in neurons, including early stages of neural differentiation. EF1α was originally selected to function as a constitutive promoter; however, it responds to cellular differentiation as well as to various chemicals, as previously shown (Kern et al. [2013]). Cells were cultured on 0.1 % gelatin-coated dishes in CGR8-2luc maintenance medium: BHK21 medium, supplemented with 10 % fetal calf serum, L-glutamine, non-essential amino acids, penicillin/streptomycin, and leukemia inhibitory factor (LIF). CGR8 cells were grown in a feeder-independent manner (embryonic pluripotent stem cells, ESCs) as described in protocol 1 (Fig. 1) before testing compounds of interest.
as §1, §2
(§6) Luciferase activities were measured with a Dual-Luciferase™ Reporter system kit. CGR8-2Luc ES cells were lysed in 96-well plates according to the manufacturer’s instructions. Luminescence measurements were performed on a Fluostar Optima reader. Luminescence counts were expressed as percentage of promoter activity normalized by comparison with the control wells treated by DMSO.

EF1α promoter = tested on: EF1α promoter
Excerpt: as §5, §1, §2, §6

[2] = tested on: Tubulin α1 (Tα1) promoter
Excerpt: as §5, §1, §2, §6

[3] = tested on: ESCs and ESC-derived neurons; experiment: Dual luminescence reporter test system, all readouts in ESCs and ESC-derived neurons
Excerpt: as §1, with “neurons.” for “neurons. CGR8-2Luc cells were co-cultured with MS5 cells to induce neural differentiation in DMEM medium containing 15 % KO-serum, NEAA, β-mercaptoethanol, and P/S. On day 5, cells were detached and seeded on polyornithine-coated plates in DMEM medium containing N2 supplement, bFGF, and P/S; compound exposure was from day 6 to day 8”
as §2, with “At” for “To test compounds on ESC-derived neurons, neuronal differentiation was carried out as previously described (Suter et al. [2009]; Xu et al. [2014]). Briefly, CGR8-2Luc cells were seeded on irradiated bone marrow-derived stromal MS5 cells and cultivated for 4 days in DMEM medium containing 15 % Knock-out™ Serum Replacement, non-essential amino acids, beta-mercaptoethanol, and penicillin/streptomycin. At”
Luciferase activities were measured with a Dual-Luciferase™ Reporter system kit. CGR8-2Luc ES cells were lysed in 96-well plates according to the manufacturer’s instructions. Luminescence measurements were performed on a Fluostar Optima reader. Luminescence counts were expressed as percentage of promoter activity normalized by comparison with the control wells treated by DMSO. […] parameters were measured in homogenates of ESCs and in ESC-derived neurons: (1) FLuc, reflecting the activity of early neural promoter Tα1. FLuc increases during neuronal differentiation. Many neurotoxic compounds may affect FLuc expression, either through impact on neuronal differentiation, through changes of neuronal gene expression, or through killing of neurons.
PI was added to cell homogenates after the luciferase test, at a final concentration of 50 µg/ml and incubated for 2 h. After incubation, fluorescence intensity was measured on a Flexstation 3 microplate reader (Excitation: 544 nm ± 15 nm; Emission: 620 nm ± 15 nm). Results are expressed as percentage of control. Propidium iodide (PI) measures total DNA content as an approximation of the cell number. A decrease in PI fluorescence was interpreted as a decrease in cell number and therefore throughout the text referred to as cytotoxicity.
To describe the shape of different concentration–response curves, arbitrary scores were assigned as follows: 0 for “no change,” 1 for “down-stroke,” 2 for “bimodal profile,” and 3 for “up-stroke” (Fig. S1). A curve was classified as “down-stroke” or “up-stroke” if the change in response values comparative to control was statistically significant (p value <0.05, one-way ANOVA with post hoc Dunnett) with an additional requirement of a 30 % decrease or increase of mean response value relative to controls, respectively. If the absolute change in mean response values was below 30 % the curve was classified as “no change.” A curve was classified as “bimodal” if first up-stroke and subsequently down-stroke was observed.

[4] = Table S1, three classes; ref per compound in the footnotes of Table S1; cited from earlier work
[5] = cited from earlier work
[6] = undifferentiated ESCs, 48 h exposure, PI assay (cytotoxicity)
[7] = ESC-derived neurons, 48 h exposure, PI assay (cytotoxicity)
[8] = ESC-derived neurons, 48 h exposure
[9] = undifferentiated ESCs, 48 h exposure
[10] = undifferentiated ESCs, 48 h exposure, lowest tested concentration with statistically significant decrease

Compound	LOAEL ESC DNA (CGR8-2Luc ESCs; [6])	LOAEL Neurons DNA (ESC-derived neurons; [7])	LOAEL Neurons Tα1 [1, 8]	LOAEL Neurons EF1α (EF1α promoter; [8])	LOAEL ESC EF1α (EF1α promoter; [9])	LOAEL ESC Tα1 [2, 10]	Number of non-cytotoxic changes ([3]; mouse, 48 h)	class based on clinical evidence for neurotoxicity [4]	result in the dual luminescence reporter test system [3]	other results
CN(C)CCCN1c2ccccc2Sc2ccc(Cl)cc21 [Chlorpromazine]	20 µM	20 µM	1 µM	2 µM	20 µM	20 µM	1	Well-established (developmental)	–	–
O=C(O)c1cc[c]([Hg][Cl])cc1 [4-chloromercuric benzoic acid]	–	–	–	–	–	–	–	Possibly (developmental)	–	LOAEL ESC DNA (CGR8-2Luc ESCs): 5 µM; LOAEL Neurons DNA (ESC-derived neurons): 100 µM; LOAEL Neurons Tα1 [1]: 10 µM; LOAEL ESC EF1α (EF1α promoter): 5 µM; LOAEL Neurons EF1α (EF1α promoter): 100 µM; LOAEL ESC Tα1 [2]: 5 µM; Number of non-cytotoxic changes [3]: 1
COCCCOc1cc(C[C@@H](C[C@H](N)[C@@H](O)C[C@H](C(=O)NCC(C)(C)C(N)=O)C(C)C)C(C)C)ccc1OC [Aliskiren]	>50 µM	>50 µM	>50 µM	>50 µM	>50 µM	>50 µM	0	–	–	Concentration in humans ([5]; ref Zimmer et al. ([2014])): 0.33^k µM
CC(C)Cc1ccc(C(C)C(=O)O)cc1 (centres unmarked) [Ibuprofen]	>50 µM	>50 µM	>50 µM	>50 µM	>50 µM	>50 µM	0	–	negative	Concentration in humans ([5]; ref Dewland et al. ([2009])): 150^a µM
OC[C@@H](O)[C@@H](O)[C@H](O)[C@H](O)CO [D-mannitol]	>50 µM	>50 µM	>50 µM	>50 µM	>50 µM	>50 µM	0	Non-neurotoxic	negative	–
[CH3][Sn]([CH3])([CH3])[Cl] [Trimethyltin chloride]	5 µM	5 µM	5 µM	0.05 µM	5 µM	5 µM	–	Well-established (developmental)	–	EF1α promoter LOAEL in neurons (EF1α promoter; [8]): 50 nM; Number of non-cytotoxic changes ([3]; reporter activity changes in the non-cytotoxic concentration range, highest possible number 4): 1
O=C(O)c1cccnc1 [Nicotinic acid]	–	–	–	–	–	–	0	Non-neurotoxic	negative	LOAEL ESC DNA (CGR8-2Luc ESCs; mouse): >50 µM; LOAEL Neurons DNA (ESC-derived neurons; mouse): >50 µM; LOAEL Neurons Tα1 ([1]; mouse): >50 µM; LOAEL ESC EF1α (EF1α promoter; mouse): >50 µM; LOAEL Neurons EF1α (EF1α promoter; mouse): >50 µM; LOAEL ESC Tα1 ([2]; mouse): >50 µM
N[C@@H](CC(=O)N1CCn2c(nnc2C(F)(F)F)C1)Cc1cc(F)c(F)cc1F [Sitagliptin]	>50 µM	>50 µM	>50 µM	>50 µM	>50 µM	>50 µM	0	–	–	Concentration in humans ([5]; ref Zimmer et al. ([2014])): 1.9^k µM
